Consider 12 compounds from paper PMC7411735, “New Terpendole Congeners, Inhibitors of Sterol O-Acyltransferase, Produced by Volutella citrinella BF-0440” (Molecules, 2020).

Like-named read-outs stand apart in the source and are kept apart here.

In assay [1] the target is T1, human SOAT2 (Homo sapiens, UniProt O75908).
T1 construct: expressed in transfected cells; host or cells: CHO AC29 (SOAT-deficient) cells
T1 sequence (O75908 1-522): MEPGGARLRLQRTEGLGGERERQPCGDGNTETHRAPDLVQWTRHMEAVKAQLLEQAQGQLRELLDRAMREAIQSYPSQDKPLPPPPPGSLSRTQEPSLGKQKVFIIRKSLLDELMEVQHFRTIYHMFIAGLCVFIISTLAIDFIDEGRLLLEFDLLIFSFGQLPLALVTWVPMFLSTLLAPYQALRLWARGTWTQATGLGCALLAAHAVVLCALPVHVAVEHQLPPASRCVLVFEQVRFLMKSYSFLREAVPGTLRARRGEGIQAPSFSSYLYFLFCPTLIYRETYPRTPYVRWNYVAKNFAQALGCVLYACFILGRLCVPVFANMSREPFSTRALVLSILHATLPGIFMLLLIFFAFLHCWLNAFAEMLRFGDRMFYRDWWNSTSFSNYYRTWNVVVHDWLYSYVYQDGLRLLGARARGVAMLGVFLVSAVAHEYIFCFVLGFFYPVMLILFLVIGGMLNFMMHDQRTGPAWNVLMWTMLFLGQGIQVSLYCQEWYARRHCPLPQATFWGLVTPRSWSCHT
The experiment in a line: SOAT2 activity in SOAT2-CHO cells ([14C]CE formation from [1-14C]oleic acid). It is filed as cell-based. Conditions: for IC50: n ≧ 3.
Description: (§1) CHO cells (AC29 cells, SOAT-deficient cells) expressing the SOAT1 or SOAT2 genes from human were cultured using a previously described method [17].
(§2) Assays for human SOAT1 and SOAT2 activities using SOAT1- and SOAT2-CHO cells were performed using our established method [11, 17]. […] At least 80% confluent cells were used for assays. […] After a 6-h incubation at 37 °C in 5% CO2, medium was removed, and the cells in each well were washed twice with PBS. Cells were lysed by adding 0.25 mL of 10 mM Tris-HCl (pH 7.5) containing 0.1% (w/v) sodium dodecyl sulfate, and [^14C]CE was analyzed using a FLA-7000 analyzer (Fuji Film). In this cell-based assay, [^14C]CE was produced by the reaction of SOAT1 or SOAT2. SOAT inhibitory activity (%) is defined as ([1-^14C]CE-drug/[^14C]CE-control) × 100.

For another assay, the target named is T2, human SOAT1 (Homo sapiens, UniProt P35610).
T2 construct: expressed in transfected cells; host or cells: CHO AC29 (SOAT-deficient) cells
T2 sequence (P35610 1-550): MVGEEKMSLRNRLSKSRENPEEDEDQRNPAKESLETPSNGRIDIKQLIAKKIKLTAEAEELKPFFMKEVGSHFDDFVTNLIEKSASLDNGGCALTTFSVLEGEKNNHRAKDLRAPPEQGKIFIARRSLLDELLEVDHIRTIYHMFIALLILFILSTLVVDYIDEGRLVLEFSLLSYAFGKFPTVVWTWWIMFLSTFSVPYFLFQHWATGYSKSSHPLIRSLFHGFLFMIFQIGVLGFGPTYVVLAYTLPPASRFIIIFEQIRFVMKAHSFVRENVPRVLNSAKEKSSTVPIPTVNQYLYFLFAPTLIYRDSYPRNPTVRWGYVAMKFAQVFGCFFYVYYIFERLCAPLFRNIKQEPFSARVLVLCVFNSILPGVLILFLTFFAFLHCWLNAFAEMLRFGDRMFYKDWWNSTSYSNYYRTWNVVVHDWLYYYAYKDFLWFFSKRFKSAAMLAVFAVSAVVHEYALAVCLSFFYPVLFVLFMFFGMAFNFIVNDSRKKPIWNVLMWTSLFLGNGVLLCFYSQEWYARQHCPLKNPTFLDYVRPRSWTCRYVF
Description: SOAT1 activity in SOAT1-CHO cells ([14C]CE formation from [1-14C]oleic acid). It is filed as cell-based. To be noted: for IC50: n ≧ 3.

Assay [2] has as its system human SOAT2. Description: SOAT2 activity in SOAT2-CHO cells ([14C]CE formation from [1-14C]oleic acid). Conditions: classified by SI. Type of assay: cell-based.
Description: as §1, §2
The test system of another assay is SOAT2. Also on record: method as in PMID 17390588. To be noted: cited from earlier work.
For assay [3], the system named is human SOAT2. On the set-up: method as in PMID 32467602. To be noted: classified by SI; cited from earlier work.
The test system of assay [4] is African green monkey SOAT2. On the set-up: method as in PMID 16629409. Conditions: cited from earlier work.
Assay [5] has as its system African green monkey SOAT1. Also on record: method as in PMID 16629409. To be noted: African green monkey SOAT1-CHO cells; cited from earlier work.
Assay [6] addresses T1, human SOAT2. Also on record: method as in PMID 32467602. To be noted: SOAT2-CHO cells; cited from earlier work.
Where [7] appears, read: IC50 SOAT2, human SOAT2-CHO cells.
Where [8] appears, read: IC50 SOAT1, human SOAT1-CHO cells.
[9] abbreviates: SAR comparison: 4 vs 6 (R5), 8 vs 11 (R6).

Description for human SOAT1: as §1, §2

Broadly, the IC50 is the point on the concentration scale where inhibition reaches its midpoint. With `CC(C)=CC1OC2C(OC3CCC4(C)C(C)(O)C(CC5(O)C(=O)Nc6cccc(CC7OC7(C)C)c65)CCC4(O)C34OC24)C(C)(C)O1` (stereo not shown) [Compound 1, Terpendole N], the IC50 on human SOAT2 [1] (read-out: IC50 SOAT2, human SOAT2-CHO cells) was more than 14 µM; on human SOAT1 (read-out: IC50 SOAT1, human SOAT1-CHO cells) it was more than 14 µM.
`CC(C)=CCOC(C)(C)[C@H]1O[C@H]2CC[C@@]3(C)[C@@H](CC[C@H]4Cc5c([nH]c6ccccc56)[C@@]43C)[C@]23O[C@@H]3[C@@H]1O` [Compound 8, terpendole D]: the Type of inhibitors entry in the assay on human SOAT2 [2] was “dual (Dual with -1.0 < SI < +1.0)”. Further, the IC50 was 2.1 µM at human SOAT2 [1] (setting [7]) and 0.8 µM against human SOAT1 (setting [8]).
With `CC(C)=CCOC(C)(C)[C@H]1O[C@H]2CC[C@@]3(C)[C@@](O)(CC[C@H]4Cc5c([nH]c6ccccc56)[C@@]43C)[C@]23O[C@@H]3[C@@H]1O` [Compound 11, terpendole J], the Type of inhibitors result with human SOAT2 [2] is reported as “dual (Dual with -1.0 < SI < +1.0)”. Further, the IC50 worked out at 10.7 µM on human SOAT2 [1] (setting [7]) and 18.6 µM against human SOAT1 (setting [8]).
Regarding pyripyropene A, the SOAT isozyme selectivity result in the assay with SOAT2 is reported as “highly selective SOAT2 inhibitor”.
In the case of `CC(C)=C[C@H]1O[C@H]2[C@H]3O[C@@]34[C@H](CC[C@@]3(C)[C@@]4(O)CC[C@H]4Cc5c([nH]c6cccc(CC7OC7(C)C)c56)[C@@]43C)O[C@@H]2C(C)(C)O1` (stereo partly shown) [Compound 2, terpendole O], the Type of inhibitors entry in the assay on human SOAT2 [2] is given as “dual (Dual with -1.0 < SI < +1.0)”. The IC50 came out at 2.4 µM at human SOAT2 [1] (setting [7]) and 2.8 µM against human SOAT1 (setting [8]).
For the compound `CC(C)=CCc1cccc2[nH]c3c(c12)C[C@@H]1CC[C@@]2(O)[C@@]45O[C@@H]4[C@@H]4O[C@H](C=C(C)C)OC(C)(C)[C@H]4O[C@H]5CC[C@]2(C)[C@@]31C` [Compound 9, terpendole L], the Type of inhibitors result with human SOAT2 [2] is listed as “dual (Dual with -1.0 < SI < +1.0)”. Also, the IC50 at human SOAT2 [1] (setting [7]) was 1.8 µM; on human SOAT1 (setting [8]), 6.8 µM.
As to `CC(C)=C[C@H]1O[C@H]2[C@H]3O[C@@]34[C@H](CC[C@@]3(C)[C@@]4(O)CC[C@H]4C[C@@]5(O)c6c(CC7OC7(C)C)cccc6N[C@@]5(O)[C@@]43C)O[C@@H]2C(C)(C)O1` (stereo partly shown) [Compound 4, voluhemin A], the Type of inhibitors entry with human SOAT2 [3] is listed as “dual (Dual with -1.0 < SI < +1.0)”. Moreover, the “enhancement of SOAT2 inhibitory activity relative to comparison compound” value on human SOAT2 [1] (setting [9]) is given as “approximately 10 fold”. The “enhancement of SOAT1 inhibitory activity relative to comparison compound” value at human SOAT1 (setting [9]) is listed as “approximately 10 fold”.
As for `CC(C)=CCc1cccc2[nH]c3c(c12)C[C@@H]1CC[C@@]2(O)[C@@]45O[C@@H]4[C@H](O)[C@@H](C(C)(C)O)O[C@H]5CC[C@]2(C)[C@@]31C` [Compound 10, tolypocladin A], the IC50 at human SOAT2 [1] (human SOAT2-CHO cells, read-out: IC50 SOAT2) was more than 18 µM; on human SOAT1 (human SOAT1-CHO cells, read-out: IC50 SOAT1), more than 18 µM.
With `CC(C)=CCOC(C)(C)[C@H]1O[C@H]2CC[C@@]3(C)[C@]4(O[C@H]4C[C@H]4Cc5c([nH]c6ccccc56)[C@@]43C)[C@]23O[C@@H]3[C@@H]1O` [Compound 3, terpendole P], the Type of inhibitors result in the assay on human SOAT2 [2] is given as “dual (Dual with -1.0 < SI < +1.0)”. Also, the IC50 against human SOAT2 [1] (setting [7]) came to 6.9 µM; against human SOAT1 (setting [8]) it was 5.9 µM.
Take `CC(C)=CCc1c([C@H](O)C2OC2(C)C)ccc2[nH]c3c(c12)C[C@@H]1CC[C@@]2(O)C(C)(C)C(=O)CC[C@]2(C)[C@@]31C` (stereo partly shown) [Compound 12, sespendole]: the IC50 in assay [4] (African green monkey SOAT2-CHO cells) is 6.5 µM; in assay [5] it was 12 µM. Also, the Type of inhibitors entry in assay [4] (classified by SI, African green monkey SOAT1 and SOAT2-CHO cells) is “dual (Dual with -1.0 < SI < +1.0)”.
Consider `CC(C)=C[C@H]1O[C@H]2[C@H]3O[C@@]34[C@H](CC[C@@]3(C)[C@@]4(O)CC[C@H]4Cc5c([nH]c6ccccc56)[C@@]43C)O[C@@H]2C(C)(C)O1` [Compound 7, terpendole C], for which the Type of inhibitors entry in the assay on human SOAT2 [2] is “dual (Dual with -1.0 < SI < +1.0)”. The IC50 on human SOAT2 [1] (setting [7]) amounted to 2.2 µM; against human SOAT1 (setting [8]), 2 µM.
Turning to `CC(C)=C[C@H]1O[C@H]2[C@H]3O[C@@]34[C@@H](O[C@@H]2C(C)(C)O1)[C@H](O)C[C@@]1(C)[C@@]4(O)CC[C@H]2C[C@@]3(O)c4c(CC5OC5(C)C)cccc4N[C@@]3(O)[C@@]21C` (stereo partly shown) [Compound 6, NK12838], in the assay with human SOAT2 [3], the Type of inhibitors entry was “dual (Dual with -1.0 < SI < +1.0)”. Besides, the IC50 on human SOAT2 [6] is 3.5 µM.
